This is an account of results in the supplement of paper PMC10307832.

Common to all, as to assay: relative viability (nuclei count vs DMSO), 5 days (fraction); higher = more cells survive
Compound in the assay “FG-4592 + Navitoclax”: Cc1nc(C(=O)NCC(=O)O)c(O)c2ccc(Oc3ccccc3)cc12 [FG-4592] + CC1(C)CCC(c2ccc(Cl)cc2)=C(CN2CCN(c3ccc(C(=O)NS(=O)(=O)c4ccc(N[C@H](CCN5CCOCC5)CSc5ccccc5)c(S(=O)(=O)C(F)(F)F)c4)cc3)CC2)C1 [Navitoclax] (partner 0.5 µM)
Summed up:
(§1)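 Cells from lung cancer lines were seeded into 1536-well plates and, one day later, dosed by pin tool. Treatments were either a single drug or a fixed dose of an anchor drug with five library-drug doses (not always all listed) in √10 steps. After 5 days, nuclei were stained in a one-step fixation (final 0.05% Triton X-100, 1% formaldehyde, 1 ug/ml Hoechst) and counted on 4× images, and relative viability is the treated-to-vehicle nuclei ratio, as the median of duplicate plates.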

Compound in the assay “IU1-47 + Crizotinib”: CC1=CC(=C(N1C2=CC=C(C=C2)Cl)C)C(=O)CN3CCCCC3 [IU1-47] + C[C@@H](Oc1cc(-c2cnn(C3CCNCC3)c2)cnc1N)c1c(Cl)ccc(F)c1Cl [Crizotinib] (partner 1 µM)
In short, it runs like this: as §1

Compound in the assay “FG-4592 + Luminespib”: Cc1nc(C(=O)NCC(=O)O)c(O)c2ccc(Oc3ccccc3)cc12 [FG-4592] + CCNC(=O)c1noc(-c2cc(C(C)C)c(O)cc2O)c1-c1ccc(CN2CCOCC2)cc1 [Luminespib] (partner 0.01 µM)
In short, it runs like this: as §1

Compound in the assay “FG-4592 + Dasatinib”: Cc1nc(C(=O)NCC(=O)O)c(O)c2ccc(Oc3ccccc3)cc12 [FG-4592] + Cc1nc(Nc2ncc(C(=O)Nc3c(C)cccc3Cl)s2)cc(N2CCN(CCO)CC2)n1 [Dasatinib] (partner 0.075 µM)
In short, it runs like this:
as §1

Regarding NCI-H1734, the relative viability with FG-4592 + Navitoclax (first compound 0.08 µM) amounted to 0.854; with FG-4592 + Navitoclax (first compound 0.253 µM) it was 0.776; in the assay with FG-4592 + Navitoclax (first compound 0.8 µM), 0.838; with FG-4592 + Navitoclax (first compound 2.53 µM) it was 0.814; with FG-4592 + Navitoclax (first compound 8 µM), 0.787; in the assay with IU1-47 + Crizotinib (first compound 0.08 µM) it was 0.658. The relative viability in the assay with IU1-47 + Crizotinib (first compound 0.253 µM) came out at 0.688; in the assay with IU1-47 + Crizotinib (first compound 0.8 µM), 0.646; with IU1-47 + Crizotinib (first compound 8 µM) it was 0.647; with FG-4592 + Luminespib (first compound 0.08 µM), 0.183; with FG-4592 + Luminespib (first compound 0.253 µM), 0.185; with FG-4592 + Luminespib (first compound 0.8 µM), 0.177. Besides, the relative viability with FG-4592 + Luminespib (first compound 2.53 µM) came to 0.192; in the assay with FG-4592 + Luminespib (first compound 8 µM), 0.178; with FG-4592 + Dasatinib (first compound 0.08 µM) it was 0.409; in the assay with FG-4592 + Dasatinib (first compound 0.253 µM) it was 0.465; in the assay with FG-4592 + Dasatinib (first compound 0.8 µM) it was 0.444; in the assay with FG-4592 + Dasatinib (first compound 2.53 µM) it was 0.454. Further, the relative viability in the assay with FG-4592 + Dasatinib (first compound 8 µM) stood at 0.401.

With NCI-H1755, the relative viability in the assay with FG-4592 + Navitoclax (first compound 0.08 µM) was 0.989; with FG-4592 + Navitoclax (first compound 0.253 µM), 0.977; in the assay with FG-4592 + Navitoclax (first compound 0.8 µM), 0.937; with FG-4592 + Navitoclax (first compound 2.53 µM), 0.997; with FG-4592 + Navitoclax (first compound 8 µM), 1.01; with IU1-47 + Crizotinib (first compound 0.08 µM), 0.883. Besides, the relative viability in the assay with IU1-47 + Crizotinib (first compound 0.253 µM) was 0.927; with IU1-47 + Crizotinib (first compound 0.8 µM), 0.899; with IU1-47 + Crizotinib (first compound 2.53 µM) it was 0.895; with IU1-47 + Crizotinib (first compound 8 µM) it was 0.756; with FG-4592 + Luminespib (first compound 0.08 µM), 0.417; in the assay with FG-4592 + Luminespib (first compound 0.253 µM) it was 0.295. For the same cell line, the relative viability with FG-4592 + Luminespib (first compound 0.8 µM) worked out at 0.331; with FG-4592 + Luminespib (first compound 2.53 µM), 0.492; with FG-4592 + Luminespib (first compound 8 µM), 0.517; with FG-4592 + Dasatinib (first compound 0.08 µM), 0.416; with FG-4592 + Dasatinib (first compound 0.253 µM), 0.435; with FG-4592 + Dasatinib (first compound 0.8 µM), 0.34. For the same cell line, the relative viability in the assay with FG-4592 + Dasatinib (first compound 2.53 µM) was determined as 0.45; in the assay with FG-4592 + Dasatinib (first compound 8 µM) it was 0.406.

As to NCI-H1792, the relative viability with FG-4592 + Navitoclax (first compound 0.08 µM) came to 0.619; with FG-4592 + Navitoclax (first compound 0.253 µM), 0.554; with FG-4592 + Navitoclax (first compound 0.8 µM) it was 0.575; with FG-4592 + Navitoclax (first compound 2.53 µM), 0.611; in the assay with FG-4592 + Navitoclax (first compound 8 µM), 0.644; with IU1-47 + Crizotinib (first compound 0.08 µM), 0.993. The relative viability in the assay with IU1-47 + Crizotinib (first compound 0.253 µM) is 1.03; with IU1-47 + Crizotinib (first compound 0.8 µM), 1.07; with IU1-47 + Crizotinib (first compound 2.53 µM) it was 1.02; with IU1-47 + Crizotinib (first compound 8 µM), 0.522; with FG-4592 + Luminespib (first compound 0.08 µM) it was 0.36; with FG-4592 + Luminespib (first compound 0.253 µM) it was 0.492. Also, the relative viability with FG-4592 + Luminespib (first compound 0.8 µM) worked out at 0.454; with FG-4592 + Luminespib (first compound 2.53 µM) it was 0.413; with FG-4592 + Luminespib (first compound 8 µM), 0.478; with FG-4592 + Dasatinib (first compound 0.08 µM) it was 0.871; with FG-4592 + Dasatinib (first compound 0.253 µM), 0.72; with FG-4592 + Dasatinib (first compound 0.8 µM), 0.846. For the same cell line, the relative viability with FG-4592 + Dasatinib (first compound 2.53 µM) was found to be 0.668; with FG-4592 + Dasatinib (first compound 8 µM), 0.748.

In the case of NCI-H1915, the relative viability in the assay with FG-4592 + Navitoclax (first compound 0.08 µM) was 0.744; in the assay with FG-4592 + Navitoclax (first compound 0.253 µM), 0.733; with FG-4592 + Navitoclax (first compound 0.8 µM), 0.838; with FG-4592 + Navitoclax (first compound 2.53 µM), 0.778; with FG-4592 + Navitoclax (first compound 8 µM), 0.786; with IU1-47 + Crizotinib (first compound 0.08 µM) it was 0.973. The relative viability with IU1-47 + Crizotinib (first compound 0.253 µM) is 0.892; with IU1-47 + Crizotinib (first compound 0.8 µM), 0.915; with IU1-47 + Crizotinib (first compound 8 µM), 0.907; with FG-4592 + Luminespib (first compound 0.08 µM), 0.721; in the assay with FG-4592 + Luminespib (first compound 0.253 µM) it was 0.828; in the assay with FG-4592 + Luminespib (first compound 0.8 µM), 0.911. Further, the relative viability in the assay with FG-4592 + Luminespib (first compound 2.53 µM) was 0.781; with FG-4592 + Luminespib (first compound 8 µM), 0.697; in the assay with FG-4592 + Dasatinib (first compound 0.08 µM), 0.324; with FG-4592 + Dasatinib (first compound 0.253 µM) it was 0.283; with FG-4592 + Dasatinib (first compound 0.8 µM), 0.286; with FG-4592 + Dasatinib (first compound 2.53 µM), 0.31. For the same cell line, in the assay with FG-4592 + Dasatinib (first compound 8 µM), the relative viability stood at 0.257.
